Columns and labels:
[1] = tested on: CDK9 binding to HIV 5′-LTR in J-Lat cells (10.6); experiment: ChIP-qPCR of CDK9 binding to HIV 5'-LTR; format: cell-based, human; conditions: PMA 50ng/ml, 24 hours
Procedure: Twenty-four hours later, cells were subjected to ChIP-qPCR using an anti-CDK9 antibody, with isotype IgG as the ChIP control.
24 hours after treatments, ChIP-qPCR was performed using a CDK9-specific antibody to examine the recruitment of CDK9 to HIV 5’-LTR in J-Lat cells. ChIP using an isotype IgG was included for normalization. Data were shown as fold change in the precipitated HIV 5′ LTR by the CDK9 antibody relative to the control isotype IgG for each treatment condition.
ChIP was performed using a method reported previously [41]. About 15 × 10⁶ J-Lat cells were treated according to the conditions described in the Main Text. After treatment, cells were collected, washed once with PBS, and resuspended in 10 mL PBS. To cross-link protein–DNA complexes, cells were fixed with 37% formaldehyde, and the reaction was quenched by adding 10Xglycine and incubating for 5 min at room temperature. The cells were then pelleted by centrifugation, and the pellets were incubated in ice-cold lysis buffer for 30 min. […] After extensive washing with the appropriate ChIP buffers, immune complexes were eluted, reverse cross-linked, and treated with proteinase K. DNA was purified using phenol–chloroform extraction and subsequently analyzed by qPCR. […] ChIP-qPCR results were quantified using the fold-enrichment method as previously reported [41].

[2] = tested on: BRD4-knockout (KO) J-Lat cells; experiment: RT-qPCR of differentially expressed genes, BRD4-KO J-Lat cells; format: cell-based, human; conditions: same treatments
Procedure: To validate the RNA-Seq results, RT-qPCR analysis was performed on a subset of differentially expressed genes (DEGs) (Fig 3E). Eight representative DEGs were selected based on statistical significance (adjusted p values) and their involvement in key pathways identified by GSEA, including lipid metabolism/cholesterol biosynthesis (HMGCS1, SQLE, DHCR7) and cytokine signaling (ITK and DUSP8). Relative gene expression levels were normalized to the housekeeping gene GAPDH. […] As an additional control, RT-qPCR was also performed on RNA isolated from BRD4-knockout (KO) J-Lat cells that received the same treatments. The generation and characterization of BRD4-KO J-Lat cells were described previously.
RT-qPCR was performed as previously reported.

Row | Structure (SMILES) | Increase in CDK9 occupancy at the HIV promoter relative to NC [1] | Contrasting regulatory effects on representative DEGs in the absence of BRD4 [2]
1 | CCCCCCCCCCCCCC(=O)O[C@@H]1[C@@H](C)[C@@]2(O)[C@@H](C=C(CO)C[C@]3(O)C(=O)C(C)=C[C@@H]23)[C@@H]2C(C)(C)[C@]12OC(C)=O [PMA, reference compound] | ~ 19 fold | –
2 | Cc1sc2c(c1C)C(c1ccc(Cl)cc1)=N[C@@H](CC(=O)OC(C)(C)C)c1nnc(C)n1-2 [JQ1, reference compound] | – | largely abolished
